Experimental findings from DBAASP are described below.

Molecules are shown by their SMILES. In brackets after ≈: the same amount, converted by molar mass.

Test systems include Aspergillus niger; Candida albicans; Fusarium oxysporum; Kluyveromyces marxianus; Pachysolen tannophilus; Trichoderma harzianum.
Assay in all cases: ≥ marks a high value that may be exact or a test limit, other limits are often not marked, values filed in µg/mL are converted to µM
Assay [1] concerns Acinetobacter baumannii LMG 01041.
The subject of assay [2] is Escherichia coli LMG 15862.
Assay [3] deals with Klebsiella aerogenes LMG 02094.
For assay [4], the system named is Klebsiella pneumoniae LMG 20218.
Assay [5] concerns Pseudomonas aeruginosa LMG 6395.
The subject of assay [6] is Candida albicans ATCC 10231.
For assay [7], the system named is Klebsiella pneumoniae WGLW2.
Assay [8] concerns Pseudomonas aeruginosa PA14.
Assay [9] concerns Staphylococcus aureus ATCC 29231.
The subject of assay [10] is Escherichia coli NCTC 10418.
For assay [11], the system named is Staphylococcus aureus NCTC 12981.

For `CC[C@H](C)[C@H](NC(=O)[C@H](CC(C)C)NC(=O)[C@@H](NC(=O)[C@@H](N)CC(=O)O)[C@@H](C)O)C(=O)NCC(=O)N[C@@H](CO)C(=O)N[C@H]1CSSC[C@@H]2NC(=O)[C@H](Cc3cnc[nH]3)NC(=O)CNC(=O)CNC(=O)[C@H](CCCCN)NC(=O)[C@H](Cc3ccc(O)cc3)NC(=O)CNC(=O)[C@H](CCCN=C(N)N)NC(=O)[C@H](CCCN=C(N)N)NC(=O)[C@H](CCCCN)NC(=O)[C@@H]3CSSC[C@@H](C(=O)N[C@@H](CCC(=O)O)C(=O)O)NC(=O)[C@H](Cc4c[nH]c5ccccc45)NC(=O)[C@H](CSSC[C@H](NC(=O)[C@H](CC(=O)O)NC(=O)[C@H](CO)NC(=O)[C@H]([C@@H](C)O)NC(=O)[C@H](Cc4ccc(O)cc4)NC(=O)[C@H](CC(N)=O)NC(=O)[C@H]([C@@H](C)O)NC(=O)[C@H](C)NC(=O)CNC(=O)[C@H](Cc4c[nH]c5ccccc45)NC(=O)[C@H](C(C)C)NC1=O)C(=O)N[C@@H](CC(N)=O)C(=O)N[C@@H](C)C(=O)N[C@@H](CCC(=O)O)C(=O)N3)NC(=O)[C@H](CC(N)=O)NC(=O)[C@H](C(C)C)NC(=O)[C@H](CC(N)=O)NC(=O)[C@H](CC(C)C)NC(=O)[C@H](Cc1ccccc1)NC(=O)[C@H](CO)NC(=O)CNC2=O` [DTLIGSCVWGATNYTSDCNAECKRRGYKGGHCGSFLNVNCWCE], the MIC with Aspergillus niger stood at 2.1 µM (≈ 9.9 µg/mL); with Candida albicans it was 8.5 µM (≈ 40.1 µg/mL); with Fusarium oxysporum, 16.9 µM (≈ 79.7 µg/mL); in the assay on Kluyveromyces marxianus it was 8.5 µM (≈ 40.1 µg/mL); in the assay with Pachysolen tannophilus, 8.5 µM (≈ 40.1 µg/mL); against Trichoderma harzianum, 4.2 µM (≈ 19.8 µg/mL).

`CC[C@H](C)[C@H](NC(=O)[C@H](CCCN=C(N)N)NC(=O)[C@H](CCC(N)=O)NC(=O)[C@@H](NC(=O)[C@@H](NC(=O)[C@@H](N)CCCCN)[C@@H](C)CC)C(C)C)C(=O)N[C@@H](CCCCN)C(=O)N[C@@H](CCCCN)C(=O)N[C@@H](Cc1c[nH]c2ccccc12)C(=O)N[C@@H](CC(C)C)C(=O)N[C@@H](CCCN=C(N)N)C(N)=O` [KIVQRIKKWLR]: the MIC in [1] was no less than 128 µM; in assay [2], 16 µM (≈ 23.5 µg/mL); in assay [3], no less than 256 µM; in [4], no less than 32 µM; in assay [5], 16 µM (≈ 23.5 µg/mL).

With `CC[C@H](C)[C@H](NC(=O)[C@H](CCCCN)NC(=O)[C@H](CCCCN)NC(=O)[C@@H](N)CC(C)C)C(=O)NCC(=O)N[C@@H](CCCCN)C(=O)N[C@@H](CCCCN)C(=O)N[C@H](C(=O)N[C@@H](Cc1c[nH]c2ccccc12)C(=O)N[C@@H](CCCN=C(N)N)C(=O)N[C@H](C(=O)NCC(=O)N[C@@H](Cc1c[nH]c2ccccc12)C(=O)N[C@@H](CC(N)=O)C(=O)N[C@H](C(=O)N[C@@H](CCCN=C(N)N)C(=O)N[C@@H](CC(=O)O)C(=O)N[C@@H](C)C(=O)N[C@H](C(=O)N[C@H](C(=O)N[C@@H](CCC(N)=O)C(=O)O)[C@@H](C)CC)[C@@H](C)O)[C@@H](C)O)C(C)C)[C@@H](C)CC` [LKKIGKKIWRVGWNTRDATIQ], the MIC in assay [6] is greater than 51 µM; in assay [7], no less than 51 µM; in assay [8] it was no less than 51 µM; in [9], no less than 51 µM.

Take `NC(=O)[C@H](CCCN=C(N)N)NC(=O)[C@@H]1CCCN1C(=O)[C@@H]1CCCN1C(=O)[C@H](Cc1c[nH]c2ccccc12)NC(=O)[C@@H]1CCCN1C(=O)[C@@H](N)CCCN=C(N)N` [RPWPPR]: the MIC in assay [10] and in assay [11] was no less than 158 µM each time.

Usually MIC stands for the lowest concentration that inhibits growth of the organism. Read a high MIC as weaker potency.
